# Data published in patent US5545517A, “Selective metal ion detection using a photoluminescent indicator binding to a macromolecule-metal ion complex” (The United States of America as represented by the …, priority 1994, dated 1996).
# How the values were obtained:
# carbonic anhydrase = details: observed by Chen titrating the enzyme with dansylamide; cited from earlier work
# [1] = molecular target: T1, carbonic anhydrase from bovine erythrocytes (Bos taurus, UniProt P00921); assay: binding of dansylamide to the zinc-containing carbonic anhydrase active site (fluorescence titration); details: binding site when zinc is present there
# T1 construct: purchased Sigma C-7500; host or cells: bovine erythrocytes
# Method: N,N-dimethyl-1-aminonaphthalene-8-sulfonamide (dansylamide) was from Aldrich, HEPES (Ultrapure grade) was from Baker, and other buffer salts were reagent grade or better. […] Following passage through the chelating resin, solutions were stored in clean polyethylene containers and pipetted using plastic pipets or metal-free pipet tips; fluorescence was measured in cuvettes made of synthetic fused silica. Carbonic anhydrase from bovine erythrocytes (Sigma C-7500) was stripped of its Zn atom by prolonged dialysis at 4 C. in 50 mM sodium acetate pH 5.4 buffer containing approximately 5 mM 2,6-dipicolinic acid (Aldrich). […]
# Fluorescence emission spectra and emission intensities in cuvettes were measured on a modified ISS K2 fluorometer 60 (Champaign, Ill.) using a Liconix 4114NB laser 36 emitting approximately 5 mW multimode at 326n m for excitation. […] For some measurements through the fiber the off-axis paraboloid, objective lens, and fiber holder were mounted in the ISS fluorometer in place of the cuvette holder, as described elsewhere (Thompson, R. B., Lakowicz, J. R., Anal. Chem 65 853-57 (1993)); in these experiments the chopper and lock-in were not used and the DC output of the Hamamatsu R928 photodetector was directly quantitated on the instrument's digital voltmeter after amplification. […]
# [2] = storage stability in solution; type: physicochemical; details: dilute solution, under these conditions (4° C.)
# T1 sequence (P00921 2-260 limits assumed): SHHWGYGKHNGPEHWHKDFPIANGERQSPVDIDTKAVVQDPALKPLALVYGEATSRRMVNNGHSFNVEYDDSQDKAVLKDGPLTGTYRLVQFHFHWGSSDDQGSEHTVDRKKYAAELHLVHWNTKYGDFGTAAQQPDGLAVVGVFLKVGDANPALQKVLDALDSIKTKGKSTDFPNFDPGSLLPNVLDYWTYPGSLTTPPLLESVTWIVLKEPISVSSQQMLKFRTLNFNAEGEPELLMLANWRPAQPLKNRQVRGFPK
structure (smiles),measurement,setting,value
CN(C)c1cccc2c(S(N)(=O)=O)cccc12 [dansylamide],fluorescence enhancement,carbonic anhydrase,15 fold
same,Kd,[1],240 nM
same,stability,[2],not stable for more than a week
